Reference: patent US7687465B2, “Therapeutic cancer vaccine” (Kraeftens Bekaempelse, priority 2003, dated 2010)

What was measured:
[1] = tested on: peripheral blood T cells or TIL from melanoma patients; test: ELISPOT IFN-γ secretion assay, T-cell responses against HLA-A2 binding ML-IAP peptides; format: cell-based, human
Method: Peripheral blood was obtained from melanoma patients before vaccination and subsequent to a series of vaccinations. In order to identify peptide-specific T-cell precursors, peripheral blood lymphocytes (PBL) were used directly in the ELISPOT (designated direct ELISPOT). However, to extend the sensitivity of the ELISPOT assay, PBL were stimulated once in vitro prior to analysis^17,18. At day 0, PBL or crushed lymph nodes were thawed and plated in 2 ml/well at a concentration of 2×10^6 cells in 24-well plates (Nunc, Denmark) in X-vivo medium (Bio Whittaker, Walkersville, Md.), 5% heat-inactivated human serum, and 2 mM of L-glutamine in the presence of 10 μM of peptide. Two days later 20 IU/ml recombinant interleukin-2 (IL-2) (Chiron, Ratingen, Germany) was added to the cultures. The cultured cells were tested for reactivity in the ELISPOT on day 8.
The ELISPOT assay used to quantify peptide epitope specific interferon-7 releasing effector cells was adapted from Lalvani et al.^37, and Scheibenbogen et al.^38. Briefly, nitrocellulose bottomed 96-well plates (MultiScreen MAIP N45, Millipore) were coated overnight at 4° C. with 7.5 μg/ml of anti-IFN-γ antibody (1-D1K, Mabtech, Sweden) in 75 μl sterile PBS. Subsequently, the wells were washed six times with PBS, and non-specific binding were blocked by X-vivo medium for 2 hours at 37° C. Freshly isolated PBL or cells, which had been stimulated once in vitro, were added in duplicates at different cell concentrations (from 10^6 to 10^5 cells per well for non-stimulated PBL, and from 3×10^5-3×10^4 cells per well for PBL which had been stimulated once in vitro), in 100 μl X-vivo medium. Peptides were then added to each well to a final concentration of 2 μM and incubated overnight at 37° C.
The following day, media was discarded and the wells were washed (six times) with PBS containing 0.05% Tween (PBS/Tw) before the addition of biotinylated secondary antibody (7-B6-1-Biotin, Mabtech) at 0.5 μg/ml in 75 μl PBS containing 1% BSA and 0.02% NaN3 (PBS/BSA). The plates were incubated at room temperature for 2 hours. The wells were washed (six times) with PBS/Tw. Then 75 μl of Avidin-enzyme conjugate (AP-Avidin, Calbiochem) diluted 1:2000 in PBS/BSA were added to each well and incubated for 1 hour. The enzyme substrate NBT/BCIP was prepared freshly according to the manufacturers' instructions (Gibco, code 18280-016) and 75 μl were added to each well and incubated for 5-10 min. The reaction was terminated by washing with tap-water upon the emergence of dark purple spots. The spots were then counted using the AlphaImager System (Alpha Innotech, San Leandro, Calif., USA) and the peptide specific CTL frequency could be calculated as the number of spot-forming cells.
To extend the sensitivity of the ELISPOT assay, PBL were stimulated once in vitro prior to analysis^17,18. At day 0, PBL or crushed lymph nodes were thawed and plated in 2 ml/well at a concentration of 2×10^6 cells in 24-well plates (Nunc, Denmark) in X-vivo medium (Bio Whittaker, Walkersville, Md.), 5% heat-inactivated human serum, and 2 mM of L-glutamine in the presence of 10 μM of peptide. Two days later 20 IU/ml recombinant interleukin-2 (IL-2) (Chiron, Ratingen, Germany) was added to the cultures. The cultured cells were tested for reactivity in the ELISPOT on day 12.
The ELISPOT assay used to quantify peptide epitope-specific interferon-γ-releasing effector cells was performed as described previously^19. Briefly, nitrocellulose bottomed 96-well plates (MultiScreen MAIP N45, Millipore, Hedehusene, Denmark) were coated with anti-IFN-7 antibody (1-D1K, Mabtech, Nacka, Sweden). The wells were washed, blocked by X-vivo medium, and cells were added in duplicates at different cell concentrations. Peptides were then added to each well and the plates were incubated overnight. The following day, media was discarded and the wells were washed prior to addition of biotinylated secondary antibody (7-B6-1-Biotin, Mabtech). […]

[2] = tested on: primary melanoma sections; test: In situ detection of ML-IAP-reactive CTL with multimerized HLA-A2/peptide complexes; parameters: species or system human; conditions: sections of primary melanoma from six patients
Source text: In situ detection of ML-IAP-reactive CTL. Confocal laser scanning microscopy was used to detect CTL reacting with a Cy3-conjugated anti-CD8 antibody (red channel) and a fluorescein isothiocyanate-conjugated multimeric HLA-A2/ML-IAP280 construct (green channel) (first and second columns) or with a fluorescein isothiocyanate conjugated multimeric HLA-A2/ML-IAP245 construct (last column) in primary tumors from two HLA-A2-positive melanoma patients.
HLA-A2 and ML-IAP245/HLA-A2-specific monomers were multimerized using dextran molecules, which were conjugated with both streptavidin and fluorescein isothiocyanate. Multimerized MHC complexes were used to stain acetone-fixed, frozen material as described previously^11,48 and antigen-specific cells were visualized using a confocal laser microscope. Sections of primary melanoma from six patients were analyzed, and ML-IAP280- and ML-IAP245-reactive CTL could readily be detected in situ in the tumor microenvironment in two of the patients (FIG. 4).

For `CC(C)C[C@H](NC(=O)[C@@H](N)CCCNC(=N)N)C(=O)N[C@@H](CCC(N)=O)C(=O)N[C@@H](CCC(=O)O)C(=O)N[C@@H](CCC(=O)O)C(=O)N[C@@H](CCCNC(=N)N)C(=O)N[C@H](C(=O)N[C@@H](CS)C(=O)N[C@@H](CCCCN)C(=O)N[C@H](C(=O)O)C(C)C)[C@@H](C)O` [ML-IAP245], the “strength of spontaneous CTL response” value ([1]; TIL and PBL from melanoma patients, in words) was “Weaker spontaneous responses”, the “TIL samples in which a response against the peptide was detected” value ([1]; TIL from melanoma patients (n=22), stimulated once in vitro with peptide, number of samples) was “five” and the “PBL samples in which a response against the peptide was detected” value ([1]; peripheral blood T cells from melanoma patients (n=7), stimulated once in vitro with peptide, number of samples) was “one”. The “patients with peptide-reactive CTL detected in situ in the tumor microenvironment” value [2] was “two”.
